From the supplement of paper PMC11061612

What was measured:
Assay in all cases: combination Emax (second highest fraction inhibited in the dose matrix, 72 h); higher = more inhibition; extreme values may be limits of the assay
HCC70 (Breast Carcinoma) = system: HCC70 (Breast Carcinoma)
In short: (§1)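 Bliss excess equals the observed combination effect minus the expected value EA + EB − EA·EB, where EA and EB are the effects of each agent alone. Combination Emax is the second-highest inhibition within the matrix. Inhibition was scaled from CellTiter-Glo 2.0 luminescence, with 0 set by vehicle wells and 1 by blank wells, after 72 hours of two-drug dosing of cells plated in 1536-well plates.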

[1] = system: CGTH-W-1 (Thyroid Gland Carcinoma)
In short: as §1

[2] = system: CESS (Acute Myeloid Leukemia)
In short: as §1

NB13 (Neuroblastoma) = system: NB13 (Neuroblastoma)
In short: as §1

EW-16 (Ewing's Sarcoma) = system: EW-16 (Ewing's Sarcoma)
In short: as §1

[3] = system: NCI-H2087 (Lung Adenocarcinoma)
In short: as §1

[4] = system: MHH-ES-1 (Ewing's Sarcoma)
In short: as §1

[5] = system: JVM-2 (B-Cell Non-Hodgkin's Lymphoma)
In short: as §1

[6] = system: SK-HEP-1 (Hepatocellular Carcinoma)
In short: as §1

[7] = system: EPLC-272H (Other Solid Carcinomas)
In short: as §1

[8] = system: G-402 (Other Solid Carcinomas)
In short: as §1

[9] = system: ESO26 (Esophageal Adenocarcinoma)
In short: as §1

KP-N-YN (Neuroblastoma) = system: KP-N-YN (Neuroblastoma)
In short: as §1

5637 (Bladder Carcinoma) = system: 5637 (Bladder Carcinoma)
In short: as §1

[10] = system: NCI-H2228 (Lung Adenocarcinoma)
In short: as §1

[11] = system: HCC1428 (Breast Carcinoma)
In short: as §1

[12] = system: SW620 (Colorectal Carcinoma)
In short: as §1

[13] = system: HT55 (Colorectal Carcinoma)
In short: as §1

RH-41 (Rhabdomyosarcoma) = system: RH-41 (Rhabdomyosarcoma)
In short: as §1

[14] = system: Jurkat (T-Lymphoblastic Leukemia)
In short: as §1

CCN(CCO)CCCOc1ccc2c(Nc3cc(CC(=O)Nc4cccc(F)c4)[nH]n3)ncnc2c1 [AZD2811] + C[C@@H]1COCCN1C2=NC(=NC(=C2)C3(CC3)[S@](=N)(=O)C)C4=C5C=CNC5=NC=C4 [AZD6738] (first compound max 1 µM, 7x7, partner max 10 µM)
combination Emax (HCC70 (Breast Carcinoma)): 0.797
combination Emax [1]: 0.35
combination Emax [2]: 0.893
combination Emax (NB13 (Neuroblastoma)): 0.941
combination Emax (EW-16 (Ewing's Sarcoma)): 0.758
combination Emax [3]: 0.662
combination Emax [4]: 0.685
combination Emax [5]: 0.875
combination Emax [6]: 0.42
combination Emax [7]: 0.849
combination Emax [8]: 0.606
combination Emax [9]: 0.0804
combination Emax (KP-N-YN (Neuroblastoma)): 0.957
combination Emax (5637 (Bladder Carcinoma)): 0.827
combination Emax [10]: 0.517
combination Emax [11]: 0.172
combination Emax [12]: 0.417
combination Emax [13]: 0.515
combination Emax (RH-41 (Rhabdomyosarcoma)): 0.706
combination Emax [14]: 0.865

CCN(CCO)CCCOc1ccc2c(Nc3cc(CC(=O)Nc4cccc(F)c4)[nH]n3)ncnc2c1 [AZD2811] + O=C(c1cc(Cc2n[nH]c(=O)c3ccccc23)ccc1F)N1CCN(C(=O)C2CC2)CC1 [Olaparib] (first compound max 1 µM, 7x7, partner max 10 µM)
combination Emax (HCC70 (Breast Carcinoma)): 0.675
combination Emax [1]: 0.291
combination Emax [2]: 0.513
combination Emax (NB13 (Neuroblastoma)): 0.626
combination Emax (EW-16 (Ewing's Sarcoma)): 0.626
combination Emax [3]: 0.163
combination Emax [4]: 0.76
combination Emax [5]: 0.738
combination Emax [6]: 0.362
combination Emax [7]: 0.204
combination Emax [8]: 0.605
combination Emax [9]: 0
combination Emax (KP-N-YN (Neuroblastoma)): 0.541
combination Emax (5637 (Bladder Carcinoma)): 0.622
combination Emax [10]: 0.268
combination Emax [11]: 0.218
combination Emax [12]: 0.281
combination Emax [13]: 0.291
combination Emax (RH-41 (Rhabdomyosarcoma)): 0.245
combination Emax [14]: 0.384

COc1nnc2ccc(N3CCC(c4ccc(OCCN5CCN(C)C(=O)[C@H]5C)cc4)CC3)nn12 [AZD5153] + C=CCn1c(=O)c2cnc(Nc3ccc(N4CCN(C)CC4)cc3)nc2n1-c1cccc(C(C)(C)O)n1 [AZD1775] (first compound max 1 µM, partner max 1 µM)
combination Emax (HCC70 (Breast Carcinoma)): 0.44
combination Emax [1]: 0.275
combination Emax [2]: 0.941
combination Emax (NB13 (Neuroblastoma)): 0.813
combination Emax (EW-16 (Ewing's Sarcoma)): 0.679
combination Emax [3]: 0.627
combination Emax [4]: 0.764
combination Emax [5]: 0.897
combination Emax [6]: 0.312
combination Emax [7]: 0.862
combination Emax [8]: 0.85
combination Emax [9]: 0.757
combination Emax (KP-N-YN (Neuroblastoma)): 0.924
combination Emax (5637 (Bladder Carcinoma)): 0.944
combination Emax [10]: 0.465
combination Emax [11]: 0.718
combination Emax [12]: 0.685
combination Emax [13]: 0.81
combination Emax (RH-41 (Rhabdomyosarcoma)): 0.996
combination Emax [14]: 0.983

COc1nnc2ccc(N3CCC(c4ccc(OCCN5CCN(C)C(=O)[C@H]5C)cc4)CC3)nn12 [AZD5153] + CC1(C)CCC(CN2CCN(c3ccc(C(=O)NS(=O)(=O)c4ccc(NCC5CCOCC5)c([N+](=O)[O-])c4)c(Oc4cnc5[nH]ccc5c4)c3)CC2)=C(c2ccc(Cl)cc2)C1 [Venetoclax] (first compound max 1 µM, 7x7, partner max 1 µM)
combination Emax (HCC70 (Breast Carcinoma)): 0.309
combination Emax [1]: 0.212
combination Emax [2]: 0.638
combination Emax (NB13 (Neuroblastoma)): 0.474
combination Emax (EW-16 (Ewing's Sarcoma)): 0.464
combination Emax [3]: 0.389
combination Emax [4]: 0.682
combination Emax [5]: 0.739
combination Emax [6]: 0.485
combination Emax [7]: 0.754
combination Emax [8]: 0.769
combination Emax [9]: 0.648
combination Emax (KP-N-YN (Neuroblastoma)): 0.673
combination Emax (5637 (Bladder Carcinoma)): 0.477
combination Emax [10]: 0.288
combination Emax [11]: 0.621
combination Emax [12]: 0.431
combination Emax [13]: 0.513
combination Emax (RH-41 (Rhabdomyosarcoma)): 0.909
combination Emax [14]: 0.679

COc1nnc2ccc(N3CCC(c4ccc(OCCN5CCN(C)C(=O)[C@H]5C)cc4)CC3)nn12 [AZD5153] + CCN(CCO)CCCOc1ccc2c(Nc3cc(CC(=O)Nc4cccc(F)c4)[nH]n3)ncnc2c1 [AZD2811] (first compound max 1 µM, 7x7, partner max 1 µM)
combination Emax (HCC70 (Breast Carcinoma)): 0.459
combination Emax [1]: 0.308
combination Emax [2]: 0.648
combination Emax (NB13 (Neuroblastoma)): 0.65
combination Emax (EW-16 (Ewing's Sarcoma)): 0.553
combination Emax [3]: 0.351
combination Emax [4]: 0.762
combination Emax [5]: 0.729
combination Emax [6]: 0.41
combination Emax [7]: 0.748
combination Emax [8]: 0.825
combination Emax [9]: 0.752
combination Emax (KP-N-YN (Neuroblastoma)): 0.616
combination Emax (5637 (Bladder Carcinoma)): 0.68
combination Emax [10]: 0.348
combination Emax [11]: 0.701
combination Emax [12]: 0.597
combination Emax [13]: 0.619
combination Emax (RH-41 (Rhabdomyosarcoma)): 0.888
combination Emax [14]: 0.745

COc1nnc2ccc(N3CCC(c4ccc(OCCN5CCN(C)C(=O)[C@H]5C)cc4)CC3)nn12 [AZD5153] + C[C@@H]1COCCN1C2=NC(=NC(=C2)C3(CC3)[S@](=N)(=O)C)C4=C5C=CNC5=NC=C4 [AZD6738] (first compound max 1 µM, 7x7, partner max 10 µM)
combination Emax (HCC70 (Breast Carcinoma)): 0.659
combination Emax [1]: 0.448
combination Emax [2]: 0.905
combination Emax (NB13 (Neuroblastoma)): 0.917
combination Emax (EW-16 (Ewing's Sarcoma)): 0.747
combination Emax [3]: 0.728
combination Emax [4]: 0.812
combination Emax [5]: 0.825
combination Emax [6]: 0.406
combination Emax [7]: 0.919
combination Emax [8]: 0.941
combination Emax [9]: 0.84
combination Emax (KP-N-YN (Neuroblastoma)): 0.955
combination Emax (5637 (Bladder Carcinoma)): 0.823
combination Emax [10]: 0.594
combination Emax [11]: 0.732
combination Emax [12]: 0.784
combination Emax [13]: 0.748
combination Emax (RH-41 (Rhabdomyosarcoma)): 0.99
combination Emax [14]: 0.985
